Experimental data as given in patent US20230416330A1, “Optimized GIP Peptide Analogues” (Antag Therapeutics ApS, priority 2019, published 2023).
Read-outs that look alike come from different tables or passages of the source. Starred links: 1 amine or outer side, 2 acyl side, 3 side chain; linkers in the order of their positions; H or OH if unused. Non-standard residues stand in square brackets, D forms with d. Residues, ends and D or L forms follow the SMILES beside them. *: point of attachment. C16 diacid = O=C(O)CCCCCCCCCCCCCCC(=O)*; Glutaryl = O=C(CCCC(=O)[*:2])[*:1]; Nle = CCCC[C@H](N)C(=O)O; Aib = CC(C)(N)C(=O)O

T1: human GIP receptor (Homo sapiens, UniProt P48546)
T1 construct: host or cells: HEK-293 cells, transient transfection (Lipofectamine 2000), cDNA in pCMV-Script vector
T1 sequence (P48546 22-466): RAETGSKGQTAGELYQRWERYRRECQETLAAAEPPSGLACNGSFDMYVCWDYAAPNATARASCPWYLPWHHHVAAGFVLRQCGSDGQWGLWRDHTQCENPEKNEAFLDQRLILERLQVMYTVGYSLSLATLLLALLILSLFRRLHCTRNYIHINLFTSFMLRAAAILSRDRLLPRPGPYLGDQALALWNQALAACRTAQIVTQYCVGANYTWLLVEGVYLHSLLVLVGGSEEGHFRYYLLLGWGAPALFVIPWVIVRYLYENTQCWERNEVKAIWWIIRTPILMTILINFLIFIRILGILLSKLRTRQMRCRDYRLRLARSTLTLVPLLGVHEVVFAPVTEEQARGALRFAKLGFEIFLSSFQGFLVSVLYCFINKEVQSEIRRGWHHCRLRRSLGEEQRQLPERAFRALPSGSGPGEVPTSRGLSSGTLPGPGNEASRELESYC

T2: human GIP receptor (human, UniProt P48546 22-466)
T2 sequence (looked up): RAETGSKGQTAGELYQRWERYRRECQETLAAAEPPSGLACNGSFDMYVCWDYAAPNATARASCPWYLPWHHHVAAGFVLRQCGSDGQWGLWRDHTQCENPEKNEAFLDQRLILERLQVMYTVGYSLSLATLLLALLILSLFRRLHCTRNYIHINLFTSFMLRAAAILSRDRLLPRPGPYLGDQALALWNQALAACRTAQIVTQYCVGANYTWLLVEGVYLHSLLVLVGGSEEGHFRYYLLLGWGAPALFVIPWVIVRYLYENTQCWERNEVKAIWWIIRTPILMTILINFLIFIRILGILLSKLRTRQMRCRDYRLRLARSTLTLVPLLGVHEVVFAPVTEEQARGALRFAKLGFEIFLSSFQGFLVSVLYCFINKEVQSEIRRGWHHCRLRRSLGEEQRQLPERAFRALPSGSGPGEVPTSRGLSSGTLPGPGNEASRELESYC


Assays:
[1] = molecular target: T1, human GIP receptor; experiment: cAMP assay Alternative 2 (Gaddum assay), antagonist potency pKb; format: cell-based
[2] = Physical stability: fibril formation in Thioflavin T (ThT) assay with agitation; format: physicochemical; conditions: 1 mg/ml, TFA, Phosphate (7.4); 25° C., agitation
Summary of the method: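 Peptides at 1, 5, 7.5 or 15 mg/ml in 50 mM sodium phosphate pH 7.4 or in water adjusted to pH 7.4 with NaOH, filtered 0.22 μm, with ThT added. Wells held a 3 mm silica bead under 300 rpm orbital agitation at 25° C. Emission at 486 nm tracked continuously; lag time = 10% of transition above baseline.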

[3] = Solubility by visual inspection of peptide solutions; format: physicochemical; conditions: 1 mg/ml, TFA, Phosphate (7.4)
Summary of the method: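 Peptides dissolved at 1, 5, 7.5 or 15 mg/ml in 50 mM sodium phosphate pH 7.4 or water adjusted to pH 7.4 with NaOH, with gentle mixing. Immediate solubility judged visually as a clear, colorless solution.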

[4] = molecular target: T2, human GIP receptor; experiment: cell-based or functional assay
[5] = Table 2C, Gaddum equation, single antagonist dose, HEK-293 hGIPR, read-out: nM (Kb)

| Molecule | Kb [1, 5] [nM] | Avr lag time (h) [2] | Visual appearance [3] | Avr lag time [2] [h] | Kb [1] [nM] | nM (Kb, Schild analysis, cAMP) [4] [nM] | pKb (Schild analysis, cAMP) [4] |
| --- | --- | --- | --- | --- | --- | --- | --- |
| CCCC[C@H](NC(=O)C(C)(C)NC(=O)[C@@H](NC(=O)[C@H](CO)NC(=O)[C@H](Cc1ccc(O)cc1)NC(=O)[C@H](CCC(=O)O)NC(=O)[C@H](CO)NC(=O)[C@@H](NC(=O)[C@H](Cc1ccccc1)NC(=O)[C@@H](NC(=O)CNC(=O)CCCC(=O)O)[C@@H](C)O)[C@@H](C)CC)[C@@H](C)CC)C(=O)N[C@@H](CCC(=O)O)C(=O)N[C@@H](CCCCN)C(=O)N[C@H](C(=O)N[C@@H](CCCCNC(=O)CCCCCCCCCCCCCCC(=O)O)C(=O)N[C@@H](CCC(N)=O)C(=O)N[C@@H](CCC(N)=O)C(=O)N[C@@H](CCC(=O)O)C(=O)N[C@@H](Cc1ccccc1)C(=O)N[C@H](C(=O)N[C@@H](CCC(=O)O)C(=O)N[C@@H](Cc1c[nH]c2ccccc12)C(=O)N[C@@H](CC(C)C)C(=O)N[C@@H](CC(C)C)C(=O)N[C@@H](C)C(=O)N[C@@H](CCC(N)=O)C(=O)N[C@@H](CCCCN)C(=O)N1CCC[C@H]1C(=O)N[C@@H](CO)C(=O)N[C@@H](CO)C(=O)NCC(=O)N[C@@H](C)C(=O)N1CCC[C@H]1C(=O)N1CCC[C@H]1C(=O)N1CCC[C@H]1C(=O)N[C@@H](CO)C(=O)O)C(C)C)[C@@H](C)CC [AT755] (Glutaryl-GTFISEYSI[Aib][Nle]EKIK(C16 diacid)QQEFVEWLLAQKPSSGAPPPS-OH) | 0.23 | fnd (Fnd = fibrils not detected within experiment time (96 hours) with agitation.) | Clear |  |  |  |  |
| CC[C@H](C)[C@H](NC(=O)[C@H](CO)NC(=O)[C@H](Cc1ccc(O)cc1)NC(=O)[C@H](CC(=O)O)NC(=O)[C@H](CO)NC(=O)[C@@H](NC(=O)[C@H](Cc1ccccc1)NC(=O)[C@@H](NC(=O)CNC(=O)[C@@H](N)CCC(=O)O)[C@@H](C)O)[C@@H](C)CC)C(=O)N[C@@H](C)C(=O)N[C@@H](CCSC)C(=O)N[C@@H](CC(=O)O)C(=O)N[C@@H](CCCCN)C(=O)N[C@H](C(=O)N[C@@H](CCCCNC(=O)CCCCCCCCCCCCCCC(=O)O)C(=O)N[C@@H](CCC(N)=O)C(=O)N[C@@H](CCC(N)=O)C(=O)N[C@@H](CC(=O)O)C(=O)N[C@@H](Cc1ccccc1)C(=O)N[C@H](C(=O)N[C@@H](CCC(=O)O)C(=O)N[C@@H](Cc1c[nH]c2ccccc12)C(=O)N[C@@H](CC(C)C)C(=O)N[C@@H](CC(C)C)C(=O)N[C@@H](C)C(=O)N[C@@H](CCC(N)=O)C(=O)N[C@@H](CCCCN)C(=O)O)C(C)C)[C@@H](C)CC [AT749] (H-EGTFISDYSIAMDKIK(C16 diacid)QQDFVEWLLAQK-OH; N-terminus assumed) | 2.2 |  | Clear | <24 |  |  |  |
| CC[C@H](C)[C@H](NC(=O)[C@H](CCCCN)NC(=O)[C@H](CC(=O)O)NC(=O)[C@H](CCSC)NC(=O)[C@H](C)NC(=O)[C@H](CCCCNC(=O)CCCCCCCCCCCCCCC(=O)O)NC(=O)[C@H](CO)NC(=O)[C@H](Cc1ccc(O)cc1)NC(=O)[C@H](CC(=O)O)NC(=O)[C@H](CO)NC(=O)[C@@H](NC(=O)[C@H](Cc1ccccc1)NC(=O)[C@@H](NC(=O)CNC(=O)[C@@H](N)CCC(=O)O)[C@@H](C)O)[C@@H](C)CC)C(=O)N[C@@H](Cc1c[nH]cn1)C(=O)N[C@@H](CCC(N)=O)C(=O)N[C@@H](CCC(N)=O)C(=O)N[C@@H](CC(=O)O)C(=O)N[C@@H](Cc1ccccc1)C(=O)N[C@H](C(=O)N[C@@H](CCC(=O)O)C(=O)N[C@@H](Cc1c[nH]c2ccccc12)C(=O)N[C@@H](CC(C)C)C(=O)N[C@@H](CC(C)C)C(=O)N[C@@H](C)C(=O)N[C@@H](CCC(N)=O)C(=O)N[C@@H](CCCCN)C(=O)N1CCC[C@H]1C(=O)N[C@@H](CO)C(=O)N[C@@H](CO)C(=O)NCC(=O)N[C@@H](C)C(=O)N1CCC[C@H]1C(=O)N1CCC[C@H]1C(=O)N1CCC[C@H]1C(=O)N[C@@H](CO)C(=O)O)C(C)C [AT739] (H-EGTFISDYSK(C16 diacid)AMDKIHQQDFVEWLLAQKPSSGAPPPS-OH; N-terminus assumed) |  | fnd (Fnd = fibrils not detected within experiment time (96 hours) with agitation.) | Clear |  | 11 |  |  |
| CC[C@H](C)[C@H](NC(=O)[C@H](CO)NC(=O)[C@H](Cc1ccc(O)cc1)NC(=O)[C@H](CC(=O)O)NC(=O)[C@H](CO)NC(=O)[C@@H](NC(=O)[C@H](Cc1ccccc1)NC(=O)[C@@H](NC(=O)CNC(=O)[C@@H](N)CCC(=O)O)[C@@H](C)O)[C@@H](C)CC)C(=O)N[C@@H](C)C(=O)N[C@@H](CCSC)C(=O)N[C@@H](CC(=O)O)C(=O)N[C@@H](CCCCN)C(=O)N[C@H](C(=O)N[C@@H](CCCCNC(=O)CCCCCCCCCCCCCCC(=O)O)C(=O)N[C@@H](CCC(N)=O)C(=O)N[C@@H](CCC(N)=O)C(=O)N[C@@H](CC(=O)O)C(=O)N[C@@H](Cc1ccccc1)C(=O)N[C@H](C(=O)N[C@@H](CCC(=O)O)C(=O)N[C@@H](Cc1c[nH]c2ccccc12)C(=O)N[C@@H](CC(C)C)C(=O)N[C@@H](CC(C)C)C(=O)N[C@@H](C)C(=O)N[C@@H](CCC(=O)O)C(=O)N[C@@H](CCCCN)C(=O)N1CCC[C@H]1C(=O)N[C@@H](CO)C(=O)N[C@@H](CO)C(=O)NCC(=O)N[C@@H](C)C(=O)N1CCC[C@H]1C(=O)N1CCC[C@H]1C(=O)N1CCC[C@H]1C(=O)N[C@@H](CO)C(=O)O)C(C)C)[C@@H](C)CC [AT747] (H-EGTFISDYSIAMDKIK(C16 diacid)QQDFVEWLLAEKPSSGAPPPS-OH; N-terminus assumed) |  |  | Clear | <24 | 14 |  |  |
| CC[C@H](C)[C@H](NC(=O)[C@H](CO)NC(=O)[C@H](Cc1ccc(O)cc1)NC(=O)[C@H](CC(=O)O)NC(=O)[C@H](CO)NC(=O)[C@@H](NC(=O)[C@H](Cc1ccccc1)NC(=O)[C@@H](NC(=O)CNC(=O)[C@@H](N)CCC(=O)O)[C@@H](C)O)[C@@H](C)CC)C(=O)N[C@@H](C)C(=O)N[C@@H](CCSC)C(=O)N[C@@H](CC(=O)O)C(=O)N[C@@H](CCCCNC(=O)CCCCCCCCCCCCCCC(=O)O)C(=O)N[C@H](C(=O)N[C@@H](Cc1c[nH]cn1)C(=O)N[C@@H](CCC(N)=O)C(=O)N[C@@H](CCC(N)=O)C(=O)N[C@@H](CC(=O)O)C(=O)N[C@@H](Cc1ccccc1)C(=O)N[C@H](C(=O)N[C@@H](CCC(=O)O)C(=O)N[C@@H](Cc1c[nH]c2ccccc12)C(=O)N[C@@H](CC(C)C)C(=O)N[C@@H](CC(C)C)C(=O)N[C@@H](C)C(=O)N[C@@H](CCC(N)=O)C(=O)N[C@@H](CCCCN)C(=O)N1CCC[C@H]1C(=O)N[C@@H](CO)C(=O)N[C@@H](CO)C(=O)NCC(=O)N[C@@H](C)C(=O)N1CCC[C@H]1C(=O)N1CCC[C@H]1C(=O)N1CCC[C@H]1C(=O)N[C@@H](CO)C(=O)O)C(C)C)[C@@H](C)CC [AT741] (H-EGTFISDYSIAMDK(C16 diacid)IHQQDFVEWLLAQKPSSGAPPPS-OH; N-terminus assumed) |  | fnd (Fnd = fibrils not detected within experiment time (96 hours) with agitation.) | Clear |  | 11 |  |  |
| CC[C@H](C)[C@H](NC(=O)[C@H](CO)NC(=O)[C@H](Cc1ccc(O)cc1)NC(=O)[C@H](CC(=O)O)NC(=O)[C@H](CO)NC(=O)[C@@H](NC(=O)[C@H](Cc1ccccc1)NC(=O)[C@@H](NC(=O)CNC(=O)[C@@H](N)CCC(=O)O)[C@@H](C)O)[C@@H](C)CC)C(=O)N[C@@H](C)C(=O)N[C@@H](CCSC)C(=O)N[C@@H](CC(=O)O)C(=O)N[C@@H](CCCCN)C(=O)N[C@H](C(=O)N[C@@H](Cc1c[nH]cn1)C(=O)N[C@@H](CCC(N)=O)C(=O)N[C@@H](CCC(N)=O)C(=O)N[C@@H](CC(=O)O)C(=O)N[C@@H](Cc1ccccc1)C(=O)N[C@H](C(=O)N[C@@H](CCC(=O)O)C(=O)N[C@@H](Cc1c[nH]c2ccccc12)C(=O)N[C@@H](CC(C)C)C(=O)N[C@@H](CC(C)C)C(=O)N[C@@H](C)C(=O)N[C@@H](CCC(N)=O)C(=O)N[C@@H](CCCCN)C(=O)N1CCC[C@H]1C(=O)N[C@@H](CO)C(=O)N[C@@H](CO)C(=O)N[C@@H](CCCCNC(=O)CCCCCCCCCCCCCCC(=O)O)C(=O)N[C@@H](C)C(=O)N1CCC[C@H]1C(=O)N1CCC[C@H]1C(=O)N1CCC[C@H]1C(=O)N[C@@H](CO)C(=O)O)C(C)C)[C@@H](C)CC [AT743] (H-EGTFISDYSIAMDKIHQQDFVEWLLAQKPSSK(C16 diacid)APPPS-OH; N-terminus assumed) | 19 | fnd (Fnd = fibrils not detected within experiment time (96 hours) with agitation.) | Clear |  |  |  |  |
| EGTFISDYSIXMDKIKQQDFVNWLLAQKPSSGAPPPS (Aib at 13; C16-diacid on Lys18 side chain, no linker; C-terminal COOH; GIP(1-42) numbering) [AT760] |  |  |  |  |  | 0.46 | 9.3 |
